Reference: patent publication US20110142961A1, “METHODS AND REAGENTS FOR PREDICTING CLINICAL OUTCOME AND CUSTOMIZING CHEMOTHERAPY IN LUNG CANCER PATIENTS” (Pangaea Biotech S.A., priority 2008, published 2011)

Tested on: metastatic NSCLC (patients with lung adenocarcinoma or large-cell carcinoma)
Assay: Customized treatment of metastatic NSCLC according to EGFR mutations and BRCA1 mRNA levels: survival
Format: in vivo
Conditions: median follow-up of 10 months
Method: Background: A study was carried out wherein treatment of metastatic NSCLC was customized according to the presence of EGFR mutations and BRCA1 mRNA levels.
Methods: 93 patients with lung adenocarcinoma or large-cell carcinoma were screened for EGFR Δ746-750 deletion and L858R mutation and BRCA1 mRNA expression. 15 patients with the L858R mutation in the EGFR gene received erlotinib; 78 patients without the L858R mutation in the EGFR gene received chemotherapy according to BRCA1 levels (low: gemcitabine/cisplatin; intermediate: docetaxel/cisplatin; high: docetaxel alone). In addition, Abraxas and RAP80 mRNA expression were examined in 60/78 patients without the L858R mutation. The features of the patients are collected in Tables I and II.

CC(=O)O[C@@]12CO[C@@H]1C[C@H](O)[C@@]1(C)C(=O)[C@H](O)C3=C(C)[C@@H](OC(=O)[C@H](O)[C@@H](NC(=O)OC(C)(C)C)c4ccccc4)C[C@@](O)([C@@H](OC(=O)c4ccccc4)[C@H]21)C3(C)C [docetaxel]
median survival (12 patients with high BRCA1 levels (received docetaxel alone)): 11 months

C#Cc1cccc(Nc2ncnc3cc(OCCOC)c(OCCOC)cc23)c1 [erlotinib]
median survival (11 patients with EGFR mutations (received erlotinib)): not reached

docetaxel/cisplatin
median survival (34 patients with intermediate BRCA1 levels (received docetaxel/cisplatin)): 9 months

gemcitabine/cisplatin
median survival (32 patients with low BRCA1 levels (received gemcitabine/cisplatin)): not reached
